Experimental findings from US20220402872A1, “PHOTOPOLYMERIZABLE ANTIBACTERIAL MONOMER” (UNIVERSITA' DEGLI STUDI DI TRIESTE, priority 2019, published 2022) are described below.

What all share (assay type): cell-based
For test [1], the system named is S. mutans (ATCC 25175). Description: Determination of the minimum inhibitory concentration (MIC). The settings on record: Streptococcus mutans, ATCC25175; for MIC: against S. Mutans. The protocol:
A colony of bacterium taken from agar plate is inoculated in Brain Hearth Infusion medium (BHI) and grown overnight at 37° C. The next day, the bacteria are diluted in fresh medium containing the phenol red indicator, up to a density of 10^6 bacteria/mL.
A stock solution of 2 mg/mL of compound is prepared in BHI medium containing phenol red.
In a 96-well plate, the compound stock solution is diluted serially (the concentration is halved at each step) to obtain the following final concentrations after addition of the bacteria suspension: 1 mg/mL; 0.5 mg/mL; 0.25 mg/mL; 0.125 mg/mL; 0.065 mg/mL; 0.032 mg/mL; 0.016 mg/mL; 0.008 mg/mL; 0.004 mg/mL; 0.002 mg/mL; 0.001 mg/mL. A compound-free medium is used as a growth control. A volume of bacterial suspension equal to 0.5*10^6 bacteria/mL is added to each well containing the compound and the control. The dish is incubated at 37° C. for 24 hours. Bacterial growth in each well is detected by the phenol red, which turns from red to yellow following acidification of the medium induced by bacterial metabolism. The lowest concentration of the compound causing no evident color change corresponds to the MIC.
(§1) In order to test the antibacterial properties of the compounds prepared in Examples 1-8, on colonies of S. mutans (ATCC 25175), a bacterium commonly found in the human oral cavity, a test was set up to determine the minimum inhibitory concentration (MIC) and the minimum bactericidal concentration (MBC) according to the “Determination of minimum inhibitory concentration (MIC)” methods and “Determination of minimum bactericidal concentration (MBC)” described above.

For test [2], the system named is S. mutans (ATCC 25175). Put plainly: Determination of the minimum bactericidal concentration (MBC). The settings on record: Streptococcus mutans, ATCC25175; against S. Mutans. The method, then:
(§2) A 20 mg/mL compound stock solution in BHI medium is prepared. In a 96-well plate, the compound solution is diluted serially (the concentration is halved at each step) to obtain the following final concentrations after addition of the bacteria suspension: 10 mg/mL; 5 mg/mL; 2.5 mg/mL; 1.25 mg/mL; 0.625 mg/mL; 0.31 mg/mL; 0.15 mg/mL; 0.08 mg/mL; 0.04 mg/mL; 0.02 mg/mL. Wells containing a mixture of penicillin and streptomycin antibiotics are used as a positive control. Compound-free medium is used as a growth control. A volume of bacterial suspension equal to 0.5*10^6 bacteria/mL is added to each well containing the compound and the controls. The dish is incubated at 37° C. for 24 hours. The lowest compound concentration at which no turbidity of the culture medium is evident is defined as MIC. For the calculation of MBC, aliquots equal to 50 μL are taken from the wells showing evident no turbidity of the medium and are plated on BHI agar plates for 48 hours. […] Bacterial suspensions taken from the positive control (growth medium only) and the negative control (growth medium with Ampicilin 100 μg/mL) are also seeded.
as §1

For test [3], the system named is E. coli (ATCC25922). The test is described as above. The protocol: as §2
(§3) The compounds according to Examples 1, 3, 5, 6, and 7 were tested on bacterial strains different from S. mutans with the same methods described above, obtaining the MIC and MBC values reported in Table 2.

Test [4] relates to S. Mitis (ATCC 49456). The description is as above. The protocol:
as §2, §3

Test [5] concerns S. mutans bacterial suspension (ATCC 25175). Description: Direct contact test (DCT) in bonding resin R2. The protocol: The DCT test is based on the turbidimetric determination of bacterial growth in 96-well microplates.
On the wall of each well, 15 μL of the resin to be tested are polymerized for 40 s, using a VALO® Grand LED curing light (Ultradent, Milan, Italy) in standard mode (1000 mW/cm^2, 2 maximum of emission in the ranges of wavelengths 395-415 nm and 440-480 nm);
In this way the side walls of the wells are coated with the polymerized material under test. The wells are then washed with phosphate buffered saline (PBS) before inoculating them with bacteria. Keeping the plate in vertical position, 10 μL of S. mutans bacterial suspension (ATCC 25175) in brain heart infusion medium (BHI) from an o/n culture, is then deposited on the layer of material present on the side walls of the wells. The plate is held upright for 1 hour to allow direct contact between bacteria and the cured material. 200 μL culture broth is then added to each of the wells with gentle mixing. The microplate is then placed in the chamber of a spectrophotometer for ELISA plates reading at 37° C. and the optical density in each well is measured at 600 nm at regular intervals (every 30 minutes for 18 hours). The whole experiment is conducted under aseptic conditions and is repeated on three microplates to ensure reproducibility of the result. 24 wells for each microplate were tested for each sample.
The bactericidal properties of the compounds according to Examples 1, 5, 6 and 7 within a reference bonding resin called R2 were tested using the “Direct contact test (DCT)” method described above. As a negative reference, the reference bonding resin was used without adding compounds according to the invention.
The reference resin called R2 has the following composition (% by weight): • 70% Bis-GMA (bisphenol A glycidyl dimethacrylate, CAS 1565-94-2, Sigma-Aldrich); • 28.75% TEGDMA (triethylene glycol dimethacrylate, CAS 109-16-0, Sigma-Aldrich); • 0.25% CQ (Camphorquinone, CAS 10373-78-1, Sigma-Aldrich); • 1% EDMAD (ethyl-4-dimethylamino benzoate, CAS 10287-53-3, Sigma-Aldrich) and was diluted with 20% by weight of EtOH for use.
For the tests execution, different quantities of the compounds according to examples 1, 5, 6 and 7 were added to the resin R2 in a quantity range from 0.1 to 10% by weight. The homogeneity of the material to be tested was ensured before application in the wells by carrying out a sonication (50%, 5 min) and mixing with Vortex (800 rpm, 5 min) of the various resins added with the compound according to the invention.

Molecule `C=C(C)C(=O)OCC[N+](C)(C)CCCCCCCCCCCC[N+](C)(C)CCOC(=O)C(=C)C.[Br-].[Br-]` [Example 1] showed an MIC in test [1] of 150 µg/mL. Moreover, the MBC in test [2] is 300 µg/mL. Moreover, the MCB in test [3] turned out to be 0.625 mg/mL; in test [4] it was 0.62 mg/mL. For the same molecule, the “inhibition of bacterial survival by contact (optical density)” value (shortened to “inhibition of bacterial survival”) in test [5] (1% by weight in resin R2) is “able to inhibit bacterial survival by contact”.
Regarding `C=C(C)C(=O)Nc1ccc([N+](C)(C)CCCCCCCCCCCC[N+](C)(C)c2ccc(NC(=O)C(C)=O)cc2)cc1.[Br-].[Br-]` [Example 6], the minimum inhibitory concentration (MIC) in test [1] came to 5 µg/mL. The MBC in test [1] (against the analyzed bacteria strains) was 5 to 10 µg/mL; in test [2], 10 µg/mL. The MCB turned out to be 0.002 mg/mL in test [3] and 0.01 mg/mL in test [4]. Besides, in test [5] (0.5% by weight in resin R2), the “inhibition of bacterial survival” value is reported as “able to inhibit bacterial survival by contact”.
Regarding `C=C(C)C(=O)NCc1cc[n+](CCCCCCCCCCCC[n+]2ccc(CNC(=O)C(=C)C)cc2)cc1.[Br-].[Br-]` [Example 7], inhibition of growth in test [1] (MIC) required 2.5 µg/mL. Further, in test [2], the MBC stood at 2.5 µg/mL. In addition, the MCB is 0.0025 mg/mL in test [3] and 0.02 mg/mL in test [4]. The “inhibition of bacterial survival” value in test [5] (1% by weight in resin R2) is “able to inhibit bacterial survival by contact”.
For the molecule `C=C(C)C(=O)OCC[N+](CC)(CC)CCCCCCCCCCCC[N+](CC)(CC)CCOC(=O)C(=C)C.[Br-].[Br-]` [Example 5], in test [1], the MIC fell in the range of 10 to 20 µg/mL. The MBC in test [2] amounted to 20 µg/mL. The MCB in test [3] was determined as 0.156 mg/mL; in test [4], 0.039 mg/mL. Besides, in test [5] (1% by weight in resin R2), the “inhibition of bacterial survival” value was “able to inhibit bacterial survival by contact”.
